Assays:
Test in all cases: Post emergence treatment, herbicidal activity on scale 0 to 100, synergism by Colby
Format in all cases: in vivo
Conditions in all cases: scale 0-100
[1] = system: AVEFA (Avena fatua)
Procedure: (§1) The presence of a synergistic effect in terms of percent control, between two mixing partners (X and Y) can be calculated using the Colby equation (Colby, S. R., 1967, Calculating Synergistic and Antagonistic Responses in Herbicide Combinations, Weeds, 15, 21-22):
(§2) The analysis of synergism or antagonism between the mixtures or compositions was determined using Colby's equation.
(§3) The culture containers used were plastic flowerpots containing loamy sand with approximately 3.0% of humus as the substrate. The seeds of the test plants were sown separately for each species and/or resistant biotype. […] The containers were irrigated gently to promote germination and growth and subsequently covered with transparent plastic hoods until the plants had rooted. This cover caused uniform germination of the test plants, unless this had been impaired by the active ingredients. […] For this purpose, the test plants were either sown directly and grown in the same containers, or they were first grown separately as seedlings and transplanted into the test containers a few days prior to treatment. Depending on the species, the plants were kept at 10-25° C. or 20-35° C., respectively. The test period extended to 20 days after treatment. During this time, the plants were tended, and their response to the individual treatments was evaluated. The evaluation was carried out by using a scale from 0 to 100. 100 means no emergence of the plants or complete destruction of at least the above-ground parts, and 0 means no damage, or normal course of growth. Data shown are the mean of two replications.

[2] = system: SETVI (Setaria viridis)
Procedure: as §1, §2, §3

[3] = system: CYPIR (Cyperus iria)
Procedure: as §1, §2, §3

[4] = system: KCHSC (Kochia scoparia)
Procedure: as §1, §2, §3

[5] = system: ABUTH (Abutilon theophrasti)
Procedure: as §1, §2, §3

[6] = system: ECHCG (Echinochloa crus-galli)
Procedure: as §1, §2, §3

[7] = system: CHEAL (Chenopodium album)
Procedure: as §1, §2, §3

[8] = system: ERICA (Erigeron Canadensis, Conyza canadensis)
Procedure: as §1, §2, §3

[9] = 2,4-D as dimethylammonium salt 70 g ai/ha
[10] = 2,4-D as dimethylammonium salt 140 g ai/ha

Compound: CNC.O=C(O)COc1ccc(Cl)cc1Cl [2,4-D as dimethylammonium salt, 2,4-D dimethylammonium salt]
- Herbicidal activity against AVEFA, Found [1, 9]: 0
- Herbicidal activity against AVEFA, Found [1, 10]: 0
- Herbicidal activity against SETVI, Found [2, 9]: 0
- Herbicidal activity against SETVI, Found [2, 10]: 0

Compound: CCOC(=O)COc1ncccc1Oc1cc(-n2c(=O)cc(C(F)(F)F)n(C)c2=O)c(F)cc1Cl [Compound II-83, ethyl [3-[2-chloro-4-fluoro-5-(1-methyl-6-trifluoromethyl-2,4-dioxo-1,2,3,4-tetrahydropyrimidin-3-yl)phenoxy]-2-pyridyloxy]acetate]
- Herbicidal activity against CYPIR, Found ([3]; Compound II-83 0.25 g ai/ha): 0

Compound: CNC.COc1c(Cl)ccc(Cl)c1C(=O)O [Dicamba as dimethylammonium salt, Dicamba dimethylammonium salt]
- Herbicidal activity against SETVI, Found ([2]; Dicamba as dimethylammonium salt 35 g ai/ha): 0
- Herbicidal activity against SETVI, Found ([2]; Dicamba as dimethylammonium salt 70 g ai/ha): 0
- Herbicidal activity against SETVI, Found ([2]; Dicamba as dimethylammonium salt 140 g ai/ha): 30

Compound: COC[C@H](C)N(C(=O)CCl)c1c(C)csc1C [Dimethenamid-P, dimethenamid-P]
- Herbicidal activity against KCHSC, Found ([4]; Dimethenamid-P 500 g ai/ha): 0
- Herbicidal activity against KCHSC, Found ([4]; Dimethenamid-P 1000 g ai/ha): 70

Compound: CN(C)C(=O)Nc1ccc(Cl)c(Cl)c1 [Diuron, diuron]
- Herbicidal activity against AVEFA, Found ([1]; Diuron 125 g ai/ha): 20
- Herbicidal activity against AVEFA, Found ([1]; Diuron 250 g ai/ha): 30

Compound: CN(C)C(=O)Nc1cccc(C(F)(F)F)c1 [Fluometuron, fluometuron]
- Herbicidal activity against ABUTH, Found ([5]; Fluometuron 125 g ai/ha): 0
- Herbicidal activity against ABUTH, Found ([5]; Fluometuron 250 g ai/ha): 20

Compound: CP(=O)(O)CC[C@H](N)C(=O)O [L-Glufosinate, (2S)-2-amino-4-[hydroxy(methyl)phosphinoyl]butyric acid]
- Herbicidal activity against AVEFA, Found ([1]; L-Glufosinate 100 g ai/ha): 35
- Herbicidal activity against AVEFA, Found ([1]; L-Glufosinate 300 g ai/ha): 20
- Herbicidal activity against SETVI, Found ([2]; Example 8, L-Glufosinate 100 g ai/ha): 30
- Herbicidal activity against SETVI, Found ([2]; Example 9, L-Glufosinate 100 g ai/ha): 30
- Herbicidal activity against SETVI, Found ([2]; L-Glufosinate 75 g ai/ha): 0
- Herbicidal activity against SETVI, Found ([2]; L-Glufosinate 150 g ai/ha): 70
- Herbicidal activity against CYPIR, Found ([3]; L-Glufosinate 200 g ai/ha): 0
- Herbicidal activity against KCHSC, Found ([4]; L-Glufosinate 200 g ai/ha): 90
- Herbicidal activity against ECHCG, Found ([6]; Example 4, L-Glufosinate 200 g ai/ha): 0
- Herbicidal activity against ECHCG, Found ([6]; Example 4, L-Glufosinate 400 g ai/ha): 65
- Herbicidal activity against ECHCG, Found ([6]; Example 6, L-Glufosinate 200 g ai/ha): 0
- Herbicidal activity against ECHCG, Found ([6]; Example 6, L-Glufosinate 400 g ai/ha): 65
- Herbicidal activity against ECHCG, Found ([6]; Example 12, L-Glufosinate 100 g ai/ha): 0
- Herbicidal activity against ECHCG, Found ([6]; Example 12, L-Glufosinate 200 g ai/ha): 0
- Herbicidal activity against ECHCG, Found ([6]; Example 13, L-Glufosinate 100 g ai/ha): 0
- Herbicidal activity against ECHCG, Found ([6]; Example 13, L-Glufosinate 200 g ai/ha): 0
- Herbicidal activity against ECHCG, Found ([6]; Example 14, L-Glufosinate 100 g ai/ha): 0
- Herbicidal activity against ECHCG, Found ([6]; Example 14, L-Glufosinate 200 g ai/ha): 0
- Herbicidal activity against CHEAL, Found ([7]; L-Glufosinate 100 g ai/ha): 0
- Herbicidal activity against ABUTH, Found ([5]; L-Glufosinate 75 g ai/ha): 0
- Herbicidal activity against ERICA, Found ([8]; L-Glufosinate 75 g ai/ha): 90

Compound: CCc1cccc(C)c1N(C(=O)CCl)[C@@H](C)COC [S-Metolachlor, S-metolachlor]
- Herbicidal activity against CHEAL, Found ([7]; S-Metolachlor 500 g ai/ha): 20
- Herbicidal activity against CHEAL, Found ([7]; S-Metolachlor 1000 g ai/ha): 75

Compound: CC(C)N(C)S(=O)(=O)NC(=O)c1cc(-n2c(=O)cc(C(F)(F)F)n(C)c2=O)c(F)cc1Cl [Saflufenacil, saflufenacil]
- Herbicidal activity against ECHCG, Found ([6]; Saflufenacil 0.5 g ai/ha): 0

Compound: Cc1nn(-c2cc(NS(C)(=O)=O)c(Cl)cc2Cl)c(=O)n1C(F)F [Sulfentrazone, sulfentrazone]
- Herbicidal activity against ERICA, Found ([8]; Sulfentrazone 1.25 g ai/ha): 0
- Herbicidal activity against ERICA, Found ([8]; Sulfentrazone 2.5 g ai/ha): 0

Compound: CS(=O)(=O)c1ccc(C(=O)C2C(=O)CCCC2=O)c(Cl)c1COCC(F)(F)F [Tembotrione, tembotrione]
- Herbicidal activity against ECHCG, Found ([6]; Tembotrione 0.5 g ai/ha): 0

Compound: O=C(Nc1ccccc1)Nc1cnns1 [Thidiazuron]
- Herbicidal activity against SETVI, Found ([2]; Thidiazuron 50 g ai/ha): 0

Compound: Cc1c(C(=O)c2cnn(C)c2O)ccc(S(C)(=O)=O)c1C1=NOCC1 [Topramezone, topramezone]
- Herbicidal activity against ECHCG, Found ([6]; Topramezone 1 g ai/ha): 0

Compound: C#CCN1C(=O)C(F)(F)Oc2cc(F)c(-n3c(=O)n(C)c(=S)n(C)c3=O)cc21 [Trifludimoxazin, trifludimoxazin]
- Herbicidal activity against ECHCG, Found ([6]; Trifludimoxazin 0.25 g ai/ha): 10

Compound: bicyclopyrone
- Herbicidal activity against ECHCG, Found ([6]; Bicyclopyrone 2 g ai/ha): 0
